Results reported in patent US20230293403A1, “Compositions Comprising Lipophilic Compounds and One or More (Bio)-Alkanediols” (Symrise AG, priority 2020, published 2023).

Key:
[1] = Maximum solubility of alkanediols in water, visual assessment (Example 6); conditions: assessed visually at ambient temperature after 24 h storage at 5° C.; clear mixture = dissolved
[2] = Solubility of different alkanediols or mixtures thereof in sunflower oil (Example 1); type: physicochemical
Experimental: Each 15 g 1,2-pentanediol, 1,2-hexanediol, 1,2-heptanediol or 1,2-octanediol were dissolved in 85 g sunflower oil. Each 15 g of a mixture of 1,2-octanediol and 2,3-octanediol (95:5) or 1,2-heptanediol and 2,3-heptanediol (95:5) were dissolved in 85 g sunflower oil.

[3] = system: skin (backside of hand) of untrained panelists; experiment: Sensory evaluation by untrained panelists: heptanediols, octanediols and their mixtures blended 85:15 with liquid lipophilic components (Example 4, Table 22); set-up: species or system human; conditions: in vivo
Experimental: Test procedure: • Hands were pre-washed with liquid soap by following a defined procedure; • 30 μl of corresponding sample was applied on the backside of each hand (randomized); • After 30 s the spreading behaviour of the respective formulation on skin was evaluated versus the respective oil component without 1,2-heptanediol on a scale from 1 to 5 (1=low spreading; 5=high spreading); • The samples were distributed with the fingertips of middle and forefinger with 2×5 cycles; • After 2 minutes, the fatty/greasy skin feel was evaluated on a scale from 1 to 5 (1=low fatty/greasy skin feel; 5=high fatty/greasy skin feel); • Furthermore the applicants were asked to assess the absorption, i.e. the impression of amount of remaining residue on the skin on a scale from 1 to 5 (1=low absorption; 5=high absorption).
For evaluating the sensory behaviour, liquid lipophilic components specified in the following Table 22 were blended with 1,2-heptanediol or 2,3-heptanediol or a mixture of 1,2-heptanediol and 2,3-heptanediol or 1,2-octanediol or 2,3-octanediol or a mixture of 1,2-octanediol and 2,3-octanediol (formulation) in a ratio of 85:15 and assessed by untrained panelists in comparison to the liquid lipophilic component without addition of the specified alkanediols (placebo).
The test procedure was carried out in the same manner as described in Example 2.

| Maximum solubility in water [1] | solubility in sunflower oil [2] | improvement in spreading of liquid lipophilic components with poor spreading by nature [3] | SMILES |
| --- | --- | --- | --- |
| 0.3 % by weight | – | – | CCCCCCC(O)C(C)O (stereo not drawn) [2,3-nonanediol] |
| – | tends to precipitate or recrystallize | – | CCCCCCC(O)CO (stereo not drawn) [1,2-octanediol] |
| 0.1 % by weight | – | – | CCCCCCCC(O)CO (stereo not drawn) [1,2-nonanediol] |
| 3.6 % by weight | – | – | CCCCC(O)C(C)O (stereo not drawn) [2,3-heptanediol] |
| 1.5 % by weight | – | – | CCCCCC(O)C(C)O (stereo not drawn) [2,3-octanediol] |
| 0.5 % by weight | – | – | CCCCCCC(O)CO (stereo not drawn) [Hydrolite ® 8, Caprylyl Glycol] |
| 2.5 % by weight | better solubility | perform best | CCCCCC(O)CO (stereo not drawn) [1,2-heptanediol] |
